The target in assay [1] is T1, LRRK2 WT (Homo sapiens, UniProt Q5S007). Description: Cell-based NanoBRET target engagement assay in HEK293 cells transfected with LRRK2 WT-NanoLuc fusion vector. The arrangement: expressed in transfected cells; host or cells: HEK293 (ATCC). The conditions noted are these: compound treatment 1 h. On the procedure:
(§1) Example C. Cell-Based NanoBRET Target Engagement Assay in 11EK293 Cells Transiently Transfected with LRRK2 WT- or LRRK2 (G2019S)-Nano Luc Fusion Vector
(§2) H1EK293 (ATCC) cells were transfected with […] LRRK2 WT or LRRK2 (G2019S) and 9 μg transfection carrier DNA. The transfected cells were treated with the compounds (starting at 1 μM, 10-dose with 3-fold dilution) and reference compounds CEP-701 or Staurosporine (starting at 1 μM, 10-dose with 3-fold dilution); compound treatment time: 1 h. LRRK2 WT and LRRK2 (G2019S) target engagement was measured by NanoBRET assay. Curve fits were performed only when % NanoBret signal at the highest concentration of compounds was less than […]. Assay format: 384-well format, 4000 cells/well. The IC50 values are shown in Table C, wherein “A” corresponds to IC50≤50.0 nM, “B” corresponds to 50.0 nM≤IC50<100.0 nM, “C” corresponds to 100.0 nM≤IC50.
For orientation: Bioluminescence resonance energy transfer reports proximity on the nanometre scale.
Target sequence in this assay (Q5S007 whole entry, the tested form may be a part): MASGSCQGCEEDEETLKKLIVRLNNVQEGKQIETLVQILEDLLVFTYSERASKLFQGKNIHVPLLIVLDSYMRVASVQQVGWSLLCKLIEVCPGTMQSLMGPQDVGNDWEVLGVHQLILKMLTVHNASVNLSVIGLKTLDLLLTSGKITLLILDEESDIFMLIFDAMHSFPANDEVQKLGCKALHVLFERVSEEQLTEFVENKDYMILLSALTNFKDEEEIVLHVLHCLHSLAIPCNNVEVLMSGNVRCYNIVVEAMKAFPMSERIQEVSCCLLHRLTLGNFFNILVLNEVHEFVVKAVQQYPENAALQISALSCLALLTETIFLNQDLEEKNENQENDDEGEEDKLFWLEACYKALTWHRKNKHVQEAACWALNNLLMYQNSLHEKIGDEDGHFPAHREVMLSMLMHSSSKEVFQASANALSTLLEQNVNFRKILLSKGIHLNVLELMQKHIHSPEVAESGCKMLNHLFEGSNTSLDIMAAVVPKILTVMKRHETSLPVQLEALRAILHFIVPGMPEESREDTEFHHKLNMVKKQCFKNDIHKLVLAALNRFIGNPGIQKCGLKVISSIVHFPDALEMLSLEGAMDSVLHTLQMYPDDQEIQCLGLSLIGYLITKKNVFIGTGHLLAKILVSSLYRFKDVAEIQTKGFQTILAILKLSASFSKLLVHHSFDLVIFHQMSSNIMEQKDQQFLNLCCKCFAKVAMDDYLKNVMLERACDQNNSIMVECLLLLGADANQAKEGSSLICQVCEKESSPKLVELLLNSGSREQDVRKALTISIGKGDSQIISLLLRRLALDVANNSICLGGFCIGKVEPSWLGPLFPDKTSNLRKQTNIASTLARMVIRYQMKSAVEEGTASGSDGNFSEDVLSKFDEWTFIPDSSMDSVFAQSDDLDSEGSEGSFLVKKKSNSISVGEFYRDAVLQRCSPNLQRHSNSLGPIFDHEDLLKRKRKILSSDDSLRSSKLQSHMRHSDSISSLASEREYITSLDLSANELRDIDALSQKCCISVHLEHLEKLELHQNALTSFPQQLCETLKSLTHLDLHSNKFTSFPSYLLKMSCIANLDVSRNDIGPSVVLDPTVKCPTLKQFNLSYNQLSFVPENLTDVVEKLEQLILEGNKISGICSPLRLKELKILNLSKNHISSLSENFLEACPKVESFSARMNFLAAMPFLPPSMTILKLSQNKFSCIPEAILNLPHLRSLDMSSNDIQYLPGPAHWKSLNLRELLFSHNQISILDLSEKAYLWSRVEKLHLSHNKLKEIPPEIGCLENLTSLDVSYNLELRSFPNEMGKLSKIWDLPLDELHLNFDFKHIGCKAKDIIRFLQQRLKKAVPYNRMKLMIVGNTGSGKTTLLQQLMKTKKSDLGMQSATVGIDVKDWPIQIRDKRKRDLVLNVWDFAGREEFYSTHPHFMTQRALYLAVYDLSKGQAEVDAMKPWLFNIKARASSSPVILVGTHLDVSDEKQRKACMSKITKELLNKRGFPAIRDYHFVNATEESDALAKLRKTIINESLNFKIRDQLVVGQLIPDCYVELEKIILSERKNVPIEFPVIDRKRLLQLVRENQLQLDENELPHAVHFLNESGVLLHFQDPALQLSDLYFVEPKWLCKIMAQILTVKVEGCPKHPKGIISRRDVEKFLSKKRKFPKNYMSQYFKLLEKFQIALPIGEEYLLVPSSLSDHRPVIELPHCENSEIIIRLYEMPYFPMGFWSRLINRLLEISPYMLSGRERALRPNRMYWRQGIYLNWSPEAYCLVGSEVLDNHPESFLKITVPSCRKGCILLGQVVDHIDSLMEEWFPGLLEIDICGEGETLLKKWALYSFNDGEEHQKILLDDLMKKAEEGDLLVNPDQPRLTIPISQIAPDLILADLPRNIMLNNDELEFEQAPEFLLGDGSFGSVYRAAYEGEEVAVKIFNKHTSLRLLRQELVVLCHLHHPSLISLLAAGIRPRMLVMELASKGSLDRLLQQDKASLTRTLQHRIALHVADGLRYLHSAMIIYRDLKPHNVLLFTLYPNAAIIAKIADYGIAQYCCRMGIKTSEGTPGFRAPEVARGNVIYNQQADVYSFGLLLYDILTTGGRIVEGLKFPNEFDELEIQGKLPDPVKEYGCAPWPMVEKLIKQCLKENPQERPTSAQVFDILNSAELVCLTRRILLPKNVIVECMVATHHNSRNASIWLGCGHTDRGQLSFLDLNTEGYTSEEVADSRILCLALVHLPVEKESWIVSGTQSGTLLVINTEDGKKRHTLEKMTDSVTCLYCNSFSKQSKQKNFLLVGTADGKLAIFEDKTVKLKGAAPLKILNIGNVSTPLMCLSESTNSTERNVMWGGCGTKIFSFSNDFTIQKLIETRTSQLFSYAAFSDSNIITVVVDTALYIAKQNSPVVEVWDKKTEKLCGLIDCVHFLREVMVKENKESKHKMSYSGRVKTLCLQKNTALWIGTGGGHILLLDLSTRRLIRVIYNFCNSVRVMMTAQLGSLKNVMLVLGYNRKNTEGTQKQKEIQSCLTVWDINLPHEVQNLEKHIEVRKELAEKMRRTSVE

The target of assay [2] is T1, LRRK2 WT. Description: Enzymatic activity inhibition against LRRK2 WT (ADP-Glo kinase assay, LRRKtide substrate). Type of assay: biochemical. The arrangement: purchased SignalChem Biotech, Inc. L10-11G-10. The settings on record: recombinant LRRK2 WT 36 nM, ATP, 1 h at rt, average Ki. On the procedure: Example B. Primary Assays Used to Determine Potency of the LRRK2 Inhibition
Assay for Determining Enzymatic Activity Inhibition Against LRRK2 WT.
Compound activity was determined using recombinant LRRK2 WT protein (SignalChem Biotech, Inc., Cat #L10-11G-10) and LRRKtide substrate (SignalChem Biotech, Inc., Cat #L10-58) in an in vitro enzymatic reaction. The enzymatic reaction was carried out in assay buffer (40 mM TRIS-HCl pH 7.4, 20 mM MgCl2, 0.05 mM DTT, 0.1 mg/mL BSA). The compounds were dispensed into a 384 well Diamond Well Plate (Axigen, Cat #P-384-120SQ-C-S) using the Biomek FX liquid handling system at 80× solutions of compounds in DMSO. The 2× Protein-Substrate mix (final concentration 36 nM of LRRK2 WT and 0.8 μg/μL of LRRKtide) was prepared in the 1× Assay buffer and 4 μL of mixture per well was added into the 384-well white Reaction plate with NBS (Corning, Cat #CLS4513). The 4 μL of LRRKtide substrate w/o LRRK2 WT in the 1× buffer was used for a negative control. Plates were centrifuged for 1 min at 200 g. Next the compounds were added to Reaction plate using Biomek station via following steps: 1 μL of 80× compounds (in DMSO) were mixed thoroughly with 39 μL of 2×10 μM ATP in Assay Buffer, then 4 μL of this mixture was added to Reaction plate with 4 μL of Protein-Substrate mix. Plates were centrifuged for 1 min at 200 g and incubated for 1 hour at rt. Then, 4 μL per well of ADP-Glo reagent (Promega, ADP-Glo™ Kinase Assay, Cat #V9102) was added. Plates were incubated for 30 minutes at rt. Then, 8 μL per well of Kinase detection reagent (Promega, ADP-Glo™ Kinase Assay, Cat #V9102) was added and the luminescence signal was measured with a microplate reader. The % inhibition was then used to calculate the Ki values. The average Ki values are shown in Table B, wherein “A” corresponds to Ki<10.0 nM, “B” corresponds to 10.0 nM K Ki<20.0 nM, “C” 20.0 nM K Ki<50.0 nM, “D” corresponds to 50.0 nM K Ki<100.0 nM and “E” corresponds to Ki>100.0 nM.
On the technique in general: In ADP-Glo the light output rises with the ADP produced.
Target sequence in this assay (Q5S007 970-2527 limits assumed): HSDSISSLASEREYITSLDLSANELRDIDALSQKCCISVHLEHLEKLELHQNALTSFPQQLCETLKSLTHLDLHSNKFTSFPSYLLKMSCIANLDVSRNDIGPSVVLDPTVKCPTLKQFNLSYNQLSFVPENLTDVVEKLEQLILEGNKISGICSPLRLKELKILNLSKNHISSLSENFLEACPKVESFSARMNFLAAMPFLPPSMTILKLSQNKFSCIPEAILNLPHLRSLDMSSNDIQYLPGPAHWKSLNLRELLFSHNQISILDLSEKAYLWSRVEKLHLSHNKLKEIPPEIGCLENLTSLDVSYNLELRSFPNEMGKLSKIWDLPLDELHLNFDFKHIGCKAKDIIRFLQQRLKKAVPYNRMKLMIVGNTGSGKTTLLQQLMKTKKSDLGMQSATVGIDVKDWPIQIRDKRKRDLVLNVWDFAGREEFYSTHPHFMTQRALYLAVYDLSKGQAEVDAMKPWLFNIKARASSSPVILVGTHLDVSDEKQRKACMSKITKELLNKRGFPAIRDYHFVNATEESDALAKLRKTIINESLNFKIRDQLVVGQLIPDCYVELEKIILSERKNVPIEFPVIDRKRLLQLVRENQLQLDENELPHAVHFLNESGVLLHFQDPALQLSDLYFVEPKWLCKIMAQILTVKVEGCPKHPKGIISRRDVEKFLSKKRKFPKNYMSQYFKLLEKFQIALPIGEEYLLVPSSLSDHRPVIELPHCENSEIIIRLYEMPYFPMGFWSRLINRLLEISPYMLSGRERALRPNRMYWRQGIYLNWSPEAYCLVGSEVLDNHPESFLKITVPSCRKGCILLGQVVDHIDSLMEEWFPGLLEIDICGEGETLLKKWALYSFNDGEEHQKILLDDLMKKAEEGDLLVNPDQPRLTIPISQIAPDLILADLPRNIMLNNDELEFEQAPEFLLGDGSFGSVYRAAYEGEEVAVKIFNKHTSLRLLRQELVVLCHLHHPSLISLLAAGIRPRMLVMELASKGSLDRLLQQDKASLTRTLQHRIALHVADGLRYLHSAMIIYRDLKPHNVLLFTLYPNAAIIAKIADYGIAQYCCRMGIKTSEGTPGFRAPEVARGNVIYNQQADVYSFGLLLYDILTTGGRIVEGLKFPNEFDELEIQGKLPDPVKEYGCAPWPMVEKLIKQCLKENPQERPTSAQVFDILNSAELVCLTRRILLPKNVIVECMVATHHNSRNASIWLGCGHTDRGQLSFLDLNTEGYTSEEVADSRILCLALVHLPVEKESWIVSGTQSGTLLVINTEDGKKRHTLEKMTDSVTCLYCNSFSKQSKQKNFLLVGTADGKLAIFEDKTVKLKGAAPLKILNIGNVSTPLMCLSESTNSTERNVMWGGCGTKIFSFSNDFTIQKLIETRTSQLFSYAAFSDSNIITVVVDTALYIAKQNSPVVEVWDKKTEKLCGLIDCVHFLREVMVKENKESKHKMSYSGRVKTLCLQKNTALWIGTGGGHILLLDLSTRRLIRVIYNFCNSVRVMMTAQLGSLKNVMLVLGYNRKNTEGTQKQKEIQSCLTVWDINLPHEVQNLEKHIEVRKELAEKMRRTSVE

The target in assay [3] is T2, LRRK2[G2019S] (Homo sapiens, UniProt Q5S007, G2019S). Description: Cell-based NanoBRET target engagement assay in HEK293 cells transfected with LRRK2 (G2019S)-NanoLuc fusion vector. The settings on record: compound treatment 1 h. The arrangement: expressed in transfected cells; host or cells: HEK293 (ATCC). As for the experimental part:
as §1, §2
Target sequence in this assay (Q5S007 whole entry G2019S, the tested form may be a part): as the sequence (Q5S007 whole entry, the tested form may be a part) above, with G2019S counted along it

Assay [4] addresses T2, LRRK2[G2019S]. The assay can be described thus: Enzymatic activity inhibition against LRRK2[G2019S] (ADP-Glo kinase assay, LRRKtide substrate). The arrangement: purchased SignalChem Biotech, Inc. L10-12GG-10. In kind it is biochemical. The settings on record: recombinant LRRK2[G2019S] 36 nM, ATP, 1 h at rt, average Ki. As for the experimental part:
Example A. Primary Assays Used to Determine Potency of the LRRK2 Inhibition
Assay for Determining Enzymatic Activity Inhibition Against LRRK2[G2019S].
Compound activity was determined using recombinant LRRK2[G2019S] protein (SignalChem Biotech, Inc., Cat #L10-12GG-10) and LRRKtide substrate (SignalChem Biotech, Inc., Cat #L10-58) in an in vitro enzymatic reaction. The enzymatic reaction was carried out in assay buffer (40 mM TRIS-HCl pH 7.4, 20 mM MgCl2, 0.05 mM DTT, 0.1 mg/mL BSA). The compounds were dispensed into a 384 well Diamond Well Plate (Axigen, Cat #P-384-120SQ-C-S) using the Biomek FX liquid handling system at the 80× solutions of compounds in DMSO. The 2× Protein-Substrate mix (final concentration 36 nM of LRRK2[G2019S] and 0.8 μg/μL of LRRKtide) was prepared in 1× Assay buffer and 4 μL of mixture per well was added into the 384-well white Reaction plate with NBS (Corning, Cat #CLS4513). The 4 μL of LRRKtide substrate w/o LRRK2[G2019S] in the 1× buffer was used for a negative control. Plates were centrifuged for 1 min at 200 g. Next the compounds were added to the reaction plate using Biomek station via following steps: 1 μL of 80× compounds (in DMSO) were mixed thoroughly with 39 μL of 2×10 μM ATP in Assay Buffer, then 4 μL of this mixture was added to Reaction plate with 4 μL of Protein-Substrate mix. Plates were centrifuged for 1 min at 200 g and incubated for 1 h at rt. Then, 4 μL per well of ADP-Glo reagent (Promega, ADP-Glo™ Kinase Assay, Cat #V9102) was added. Plates were incubated for 30 min at rt. Then, 8 μL per well of Kinase detection reagent (Promega, ADP-Glo™ Kinase Assay, Cat #V9102) was added and the luminescence signal was measured with a microplate reader. The luminescence signal was detected with CLARIOstar Plus (BMG LABTECH) microplate reader. The % inhibition was then used to calculate the Ki values. The average Ki values are shown in Table A, wherein “A” corresponds to Ki<5.0 nM, “B” corresponds to 5.0 nM≤Ki<10.0 nM, “C” 10.0 nM≤Ki<50.0 nM, “D” corresponds to 50.0 nM≤Ki<100.0 nM and “E” corresponds to Ki>100.0 nM.
Target sequence in this assay (Q5S007 970-2527 G2019S limits assumed): as the sequence (Q5S007 970-2527 limits assumed) above, with G1050S counted along it

Twelve molecules from patent US20250248998A1, “LRRK2 Inhibitors” (Brenig Therapeutics, Inc., priority 2022, published 2025) can be followed below.

`CC(C)Oc1ccc2[nH]nc(-c3cc(N4CCOCC4)c(=O)n(C4CC4)n3)c2c1` [Compound 19, 2-cyclopropyl-6-(5-isopropoxy-1H-indazol-3-yl)-4-morpholino-pyridazin-3-one]: the IC50 (in general, the point on the concentration scale where inhibition reaches its midpoint) against LRRK2 WT [1] is 50 to 100 nM; on LRRK2[G2019S] [3], no more than 50 nM. In addition, the Ki (usually the equilibrium dissociation constant of an inhibitor or competing ligand from its target) is no more than 10 nM at LRRK2 WT [2] and no more than 5 nM at LRRK2[G2019S] [4].
For `Cn1nc(-c2n[nH]c3ccc(OC4CCC4)cc23)cc(N2CCOCC2)c1=O` [Compound 28, 6-[5-(cyclobutoxy)-1H-indazol-3-yl]-2-methyl-4-morpholino-pyridazin-3-one] the same measures were no less than 100 nM, no less than 100 nM, no more than 10 nM and no more than 5 nM.
For `Cn1nc(-c2n[nH]c3ccc(OC4CC4)cc23)cc(N2CCOCC2)c1=O` [Compound 30, 6-[5-(cyclopropoxy)-1H-indazol-3-yl]-2-methyl-4-morpholino-pyridazin-3-one] the same measures were no less than 100 nM, no less than 100 nM, no more than 10 nM and no more than 5 nM.
For `Cc1cc2[nH]nc(-c3cc(N4CCOCC4)c(=O)n(C)n3)c2cc1OC(C)C` [Compound 26, 6-(5-isopropoxy-6-methyl-1H-indazol-3-yl)-2-methyl-4-morpholino-pyridazin-3-one] the same measures were no less than 100 nM, no less than 100 nM, no more than 10 nM and 10 to 50 nM.
As for `CC(C)Oc1ccc2[nH]nc(-c3cnnc(N4CCOCC4)c3)c2c1` [Compound 4, 4-[5-(5-isopropoxy-1H-indazol-3-yl)pyridazin-3-yl]morpholine], the concentration for half-maximal inhibition (IC50) was 50 to 100 nM at LRRK2 WT [1] and no more than 50 nM on LRRK2[G2019S] [3]. Also, the Ki is no more than 10 nM on LRRK2 WT [2] and no more than 5 nM at LRRK2[G2019S] [4].
The corresponding values for `C[C@@H]1CN(c2cc(-c3n[nH]c4ccc(OC5(C)CC5)cc34)nn(C3CC3)c2=O)C[C@H](C)O1` [Compound 51, 2-cyclopropyl-4-[(2S,6R)-2,6-dimethylmorpholin-4-yl]-6-[5-(1-methylcyclopropoxy)-1H-indazol-3-yl]pyridazin-3-one] are no more than 50 nM, no more than 50 nM, no more than 10 nM and no more than 5 nM.
For `CC(C)Cn1nc(-c2n[nH]c3ccc(OC(C)C)cc23)cc(N2CCOCC2)c1=O` [Compound 18, 2-isobutyl-6-(5-isopropoxy-1H-indazol-3-yl)-4-morpholino-pyridazin-3-one] the same measures were no less than 100 nM, no less than 100 nM, no more than 10 nM and 5 to 10 nM.
The corresponding values for `CC(C)Oc1ccc2[nH]nc(-c3cc(N4CCOCC4)c(=O)n(C4CCCC4)n3)c2c1` [Compound 16, 2-cyclopentyl-6-(5-isopropoxy-1H-indazol-3-yl)-4-morpholino-pyridazin-3-one] are 50 to 100 nM, no more than 50 nM, no more than 10 nM and 5 to 10 nM.
Regarding `CC(C)Oc1ccc2[nH]nc(-c3cc(N4CCOCC4)c(=O)n(C(C)C)n3)c2c1` [Compound 21, 6-(5-isopropoxy-1H-indazol-3-yl)-2-isopropyl-4-morpholino-pyridazin-3-one], the IC50 was no less than 100 nM against LRRK2 WT [1] and 50 to 100 nM at LRRK2[G2019S] [3]. For the same molecule, the Ki at LRRK2 WT [2] is no more than 10 nM; at LRRK2[G2019S] [4], 5 to 10 nM.
In the case of `Cn1nc(-c2n[nH]c3ccc4c(c23)CCCO4)cc(N2CCOCC2)c1=O` [Compound 29, 2-methyl-4-morpholino-6-(3,7,8,9-tetrahydropyrano[3,2-e]indazol-1-yl)pyridazin-3-one], the results for the Ki on LRRK2 WT [2] and at LRRK2[G2019S] [4] were 50 to 100 nM and greater than 100 nM, respectively.
Consider `Cn1nc(-c2n[nH]c3ccc(OC(F)F)cc23)cc(N2CCOCC2)c1=O` [Compound 32, 6-[5-(difluoromethoxy)-1H-indazol-3-yl]-2-methyl-4-morpholino-pyridazin-3-one], for which the Ki on LRRK2 WT [2] was greater than 100 nM; on LRRK2[G2019S] [4], 50 to 100 nM.
On to `CCn1nc(-c2n[nH]c3ccc(OC(C)C)cc23)cc(N2CCOCC2)c1=O` [Compound 23, 2-ethyl-6-(5-isopropoxy-1H-indazol-3-yl)-4-morpholino-pyridazin-3-one], for which the results for the IC50 on LRRK2 WT [1] and against LRRK2[G2019S] [3] were no less than 100 nM and 50 to 100 nM, respectively. Further, the inhibitory constant (Ki) on LRRK2 WT [2] was no more than 10 nM; at LRRK2[G2019S] [4] it was no more than 5 nM.
